Results taken from patent US20210015886A1, “COMPOSITION FOR IMPROVING MILD COGNITIVE IMPAIRMENT AND METHOD FOR IMPROVING MILD COGNITIVE IMPAIRMENT” (TOKAI BUSSAN CO., LTD., priority 2019, published 2021).

What was measured:
[1] = stated as known; cited from earlier work
[2] = Antioxidant activity against hydroxyl radicals (degradation of target protein, FIG. 2A); format: biochemical; conditions: prevention of degradation of target protein
From the text: FIG. 2A is a hydroxyl radical, in which 1 is untreated target protein, 2 is no antioxidant added, 3 is IMDP added, 4 is vitamin C added, 5 is ferulic acid added, 6 is IMDP+vitamin C+ferulic acid added; and
(§1) Therefore, by coexisting with these antioxidants, the antioxidant effect of IMDP is retained both for hydroxyl radicals and peroxynitrite radicals.

[3] = Antioxidant activity against peroxynitrite radicals (proteolytic action on target protein, FIG. 2B); format: biochemical; conditions: prevention of degradation of target protein
From the text: FIG. 2B is a proteolytic action by a peroxynitrite radical.
as §1

[4] = stated as known; cited from earlier work; remark: listed apart in the source

In the case of `CC1=C(/C=C/C(C)=C/C=C/C(C)=C/C=C/C=C(C)/C=C/C=C(C)/C=C/C2=C(C)C(=O)[C@@H](O)CC2(C)C)C(C)(C)C[C@H](O)C1=O` [astaxanthin], the “antioxidant activity against hydroxyl radicals (known)” value [1] is listed as “strong antioxidant activity”.

With `COc1cc(/C=C/C(=O)O)ccc1O` [ferulic acid] the “antioxidant activity against hydroxyl radicals” value [2] was “strong antioxidant activity”.

For `O=C1O[C@H]([C@@H](O)CO)C(O)=C1O` [vitamin C], the “antioxidant activity against peroxynitrite radicals” value [3] is listed as “strong antioxidant activity” and the “antioxidant activity against peroxynitrite radicals (known)” value [4] is listed as “strong antioxidant activity”.

For vitamin E, the “antioxidant activity against hydroxyl radicals (known)” value [1] is listed as “strong antioxidant activity”.
